Patent US7709636B2, “Pyrazole sulfonylurea compound and herbicide” (Nissan Chemical Industries, Ltd., priority 2004, dated 2010)

Legend:
Lindernia pyxidaria = test: Herbicidal effect test in submerged condition by treatment before weed-generation (2); assay type: in vivo; details: 0.3 g/a; submerged paddy soil pot, water surface treated on day of sowing; 3 weeks after treatment
Experimental: (§1) Herbicidal Effect Test in Submerged Condition by Treatment Before Weed-Generation (2)
(§2) Paddy surface soil was placed in a plastic pot of 1/10000 are, water was poured therein and mixed. After seeds of Scirpus juncoides were sown, paddy surface soil was added by 2 cm, and submerged with water, and then seeds of Echinochloa crus-galli, Scirpus juncoides, Monochoria vaginalis, Rotala indica and Lindernia pyxidaria were sown together. In addition, rice seedlings at 2.5th leaf stage were transplanted, and fixed to the paddy surface in a state where the roots were exposed on the other side. On the day when the seeds were sown, the wettable powder of the present invention prepared according to Formulation Example 1 was diluted with water so as to give a predetermined formulation amount, and the surface of the water was treated with the diluted wettable powder. The plants were grown by putting the pot in a green house at 25 to 30° C. The herbicidal effect for each plant was investigated 3 weeks after treatment with the herbicide according to the criteria indicated in Test Example 1.

[1] = tested on: transplanted rice (Oryza sativa); test: as above; assay type: in vivo; details: 0.3 g/a; submerged paddy soil pot, rice seedlings at 2.5th leaf stage transplanted; 3 weeks after treatment
Experimental: as §1, §2

Echinochloa crus-galli [2] = test: as above; assay type: in vivo; details: 0.3 g/a; submerged paddy soil pot, water surface treated on day of sowing; 3 weeks after treatment
Experimental: as §1, §2

Monochoria vaginalis [3] = test: as above; assay type: in vivo; details: 0.3 g/a; submerged paddy soil pot, water surface treated on day of sowing; 3 weeks after treatment
Experimental: as §1, §2

Scirpus juncoides [4] = test: as above; assay type: in vivo; details: 0.3 g/a; submerged paddy soil pot, water surface treated on day of sowing; 3 weeks after treatment
Experimental: as §1, §2

Rotala indica = test: as above; assay type: in vivo; details: 0.3 g/a; submerged paddy soil pot, water surface treated on day of sowing; 3 weeks after treatment
Experimental: as §1, §2

[5] = tested on: transplanted rice (Oryza sativa); test: Crop injury test on rice in water leakage condition; assay type: in vivo; details: 0.15 g/a; water leakage 2 cm/day x 3 days; treated on third day after transplantation; 3 weeks after treatment
Experimental: Crop Injury Test on Rice in Water Leakage Condition A mixed soil of alluvial soil and diluvial soil was placed in a plastic pot perforated at the bottom of 1/10000 are, water was poured therein and mixed, and then rice seedlings at 2.5th leaf stage were transplanted. Water leakage treatment was carried out by placing the pot in a plastic vat, and controlling the amount of water in the vat kept at a condition of 2 cm/day×3 days. The pot was put in a green house at 25 to 30° C., on third day after transplantation, the wettable powder of the present invention prepared according to Formulation Example 1 was diluted with water so as to give a predetermined formulation amount, and the surface of the water was treated with the diluted wettable powder. The crop injury on rice was investigated 3 weeks after treatment with the herbicide according to the criteria indicated in Test Example 1.

Echinochloa crus-galli [6] = test: Herbicidal effect test in submerged condition by treatment before weed-generation (1); assay type: in vivo; details: 0.64 g/a, water surface treated on day of sowing, 3 weeks after treatment
Method in brief: (§3)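 Steps: flood alluvial soil to 4 cm; sow weed seeds; transplant 2.5-leaf rice seedlings; same day treat water surface with water-diluted wettable powder at set formulation amount; keep in greenhouse at 25 to 30° C; score injury on 0–5 scale at 3 weeks.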

Monochoria vaginalis [7] = test: as above; assay type: in vivo; details: 0.64 g/a, water surface treated on day of sowing, 3 weeks after treatment
Method in brief: as §3

Scirpus juncoides [8] = test: as above; assay type: in vivo; details: 0.64 g/a, water surface treated on day of sowing, 3 weeks after treatment
Method in brief: as §3

Echinochloa crus-galli [9] = test: Herbicidal effect test in submerged condition by treatment during weed-growth stage (1); assay type: in vivo; details: 0.64 g/a, treated at 1st to 2nd leaf stage, 3 weeks after treatment
Method in brief: (§4)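 Paddy-soil pots flooded to 4 cm water depth were sown and grown in a greenhouse at 25 to 30° C until weeds reached 1st to 2nd leaf stage. A wettable powder diluted in water to a predetermined formulation amount was applied to the water surface. Herbicidal effect was scored 3 weeks after treatment against set criteria.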

Monochoria vaginalis [10] = test: as above; assay type: in vivo; details: 0.64 g/a, treated at 1st to 2nd leaf stage, 3 weeks after treatment
Method in brief: as §4

Scirpus juncoides [11] = test: as above; assay type: in vivo; details: 0.64 g/a, treated at 1st to 2nd leaf stage, 3 weeks after treatment
Method in brief: as §4

[12] = tested on: rice transplanted at a depth of 0 cm; test: Herbicidal effect test in submerged condition by treatment before weed-generation (2); assay type: in vivo, Oryza sativa; details: 0.3 g/a; submerged paddy soil pot, seedlings fixed to paddy surface with roots exposed; 3 weeks after treatment
Experimental: as §1, §2

COc1cc(OC)nc(NC(=O)NS(=O)(=O)c2c(C3=NOCCO3)c(Cl)nn2C)n1 [Comparative Compound 1]
herbicidal effect, O: Lindernia pyxidaria (Lindernia pyxidaria): 5 (Herbicidal rate 90% or more (almost complete death)) | herbicidal effect, a: transplanted rice (Oryza sativa) [1]: 0 (Herbicidal rate 5% or less (little effect)) | herbicidal effect, A: Echinochloa crus-galli (Echinochloa crus-galli [2]): 5 (Herbicidal rate 90% or more (almost complete death)) | herbicidal effect, C: Monochoria vaginalis (Monochoria vaginalis [3]): 5 (Herbicidal rate 90% or more (almost complete death)) | herbicidal effect, B: Scirpus juncoides (Scirpus juncoides [4]): 5 (Herbicidal rate 90% or more (almost complete death)) | herbicidal effect, N: Rotala indica (Rotala indica): 5 (Herbicidal rate 90% or more (almost complete death)) | crop injury on rice, a: transplanted rice (Oryza sativa) [5]: 3 (Herbicidal rate 40% or more and less than 70%) | herbicidal effect, A: Echinochloa crus-galli (Echinochloa crus-galli [6]): 5 (Herbicidal rate 90% or more (almost complete death)) | herbicidal effect, C: Monochoria vaginalis (Monochoria vaginalis [7]): 5 (Herbicidal rate 90% or more (almost complete death)) | herbicidal effect, B: Scirpus juncoides (Scirpus juncoides [8]): 5 (Herbicidal rate 90% or more (almost complete death)) | herbicidal effect, A: Echinochloa crus-galli (Echinochloa crus-galli [9]): 5 (Herbicidal rate 90% or more (almost complete death)) | herbicidal effect, C: Monochoria vaginalis (Monochoria vaginalis [10]): 5 (Herbicidal rate 90% or more (almost complete death)) | herbicidal effect, B: Scirpus juncoides (Scirpus juncoides [11]): 5 (Herbicidal rate 90% or more (almost complete death)) | herbicidal effect, g: rice transplanted at a depth of 0 cm [12]: 3 (Herbicidal rate 40% or more and less than 70%)
